Source: the supplement of paper PMC10307832

How the values were obtained:
Assay in all cases: relative viability (nuclei count vs DMSO), 5 days (fraction); higher = more cells survive
BAY61-3606 + Lapatinib = compound: COC1=C(C=C(C=C1)C2=CC3=NC=CN3C(=N2)NC4=C(C=CC=N4)C(=O)N)OC [BAY61-3606] + CS(=O)(=O)CCNCc1ccc(-c2ccc3ncnc(Nc4ccc(OCc5cccc(F)c5)c(Cl)c4)c3c2)o1 [Lapatinib] (partner 2 µM)
In short: (§1)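 Cells from lung cancer lines were seeded into 1536-well plates and, one day later, dosed by pin tool. Treatments were either a single drug or a fixed dose of an anchor drug with five library-drug doses (not always all listed) in √10 steps. After 5 days, nuclei were stained in a one-step fixation (final 0.05% Triton X-100, 1% formaldehyde, 1 ug/ml Hoechst) and counted on 4× images, and relative viability is the treated-to-vehicle nuclei ratio, as the median of duplicate plates.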

BAY61-3606 + Dasatinib = compound: COC1=C(C=C(C=C1)C2=CC3=NC=CN3C(=N2)NC4=C(C=CC=N4)C(=O)N)OC [BAY61-3606] + Cc1nc(Nc2ncc(C(=O)Nc3c(C)cccc3Cl)s2)cc(N2CCN(CCO)CC2)n1 [Dasatinib] (partner 0.075 µM)
In short: as §1

Doxorubicin + Crizotinib = compound: COc1cccc2c1C(=O)c1c(O)c3c(c(O)c1C2=O)C[C@@](O)(C(=O)CO)C[C@@H]3O[C@H]1C[C@H](N)[C@H](O)[C@H](C)O1 [Doxorubicin] + C[C@@H](Oc1cc(-c2cnn(C3CCNCC3)c2)cnc1N)c1c(Cl)ccc(F)c1Cl [Crizotinib] (partner 1 µM)
In short: as §1

Doxorubicin + Olaparib = compound: COc1cccc2c1C(=O)c1c(O)c3c(c(O)c1C2=O)C[C@@](O)(C(=O)CO)C[C@@H]3O[C@H]1C[C@H](N)[C@H](O)[C@H](C)O1 [Doxorubicin] + O=C(c1cc(Cc2n[nH]c(=O)c3ccccc23)ccc1F)N1CCN(C(=O)C2CC2)CC1 [Olaparib] (partner 8 µM)
In short: as §1

Cell Line	relative viability (BAY61-3606 + Lapatinib; first compound 0.02 µM)	relative viability (BAY61-3606 + Lapatinib; first compound 0.06325 µM)	relative viability (BAY61-3606 + Lapatinib; first compound 0.2 µM)	relative viability (BAY61-3606 + Lapatinib; first compound 0.6325 µM)	relative viability (BAY61-3606 + Lapatinib; first compound 2 µM)	relative viability (BAY61-3606 + Dasatinib; first compound 0.02 µM)	relative viability (BAY61-3606 + Dasatinib; first compound 0.06325 µM)	relative viability (BAY61-3606 + Dasatinib; first compound 0.2 µM)	relative viability (BAY61-3606 + Dasatinib; first compound 0.6325 µM)	relative viability (BAY61-3606 + Dasatinib; first compound 2 µM)	relative viability (Doxorubicin + Crizotinib; first compound 0.001 µM)	relative viability (Doxorubicin + Crizotinib; first compound 0.003162 µM)	relative viability (Doxorubicin + Crizotinib; first compound 0.01 µM)	relative viability (Doxorubicin + Crizotinib; first compound 0.03162 µM)	relative viability (Doxorubicin + Crizotinib; first compound 0.1 µM)	relative viability (Doxorubicin + Olaparib; first compound 0.001 µM)	relative viability (Doxorubicin + Olaparib; first compound 0.003162 µM)	relative viability (Doxorubicin + Olaparib; first compound 0.01 µM)	relative viability (Doxorubicin + Olaparib; first compound 0.03162 µM)	relative viability (Doxorubicin + Olaparib; first compound 0.1 µM)
NCI-H2170	0.236	0.272	0.257	0.262	0.279	0.64	0.508	0.539	0.465	0.352	1.25	1.46	1.23	1.03	1.32	0.617	0.735	0.633	0.602	0.704
NCI-H2023	0.917	0.805	0.869	1.45	0.591	0.639	0.601	0.554	0.525	0.334	0.598	0.679	0.36	0.0967	0.0644	0.454	0.336	0.19	0.0859	0.0625
201T	1.08	1.01	1.11	1.03	0.996	0.545	0.509	0.546	0.548	0.571	1	1.07	1.05	1.05	1.04	0.849	0.825	0.837	0.856	0.831
NCI-H2405	1.26	0.886	1.05	1.14	1.07	0.203	0.205	0.201	0.181	0.185	0.843	0.869	0.846	0.871	0.85	0.864	0.847	0.788	0.465	0.421
LU99A	0.97	1.02	0.909	0.976	0.486	0.561	0.509	0.505	0.51	0.303	0.548	0.522	0.671	0.417	0.46	0.235	0.264	0.287	0.274	0.253
LC-2-ad	1.02	0.97	0.951	0.898	0.979	0.569	0.496	0.753	0.622	0.27	0.265	0.414	0.459	0.416	0.389	0.343	0.679	0.707	0.707	0.696
NCI-H2087	0.747	1.08	0.994	1.11	1	1.01	0.858	0.906	0.79	0.635	0.795	0.952	0.923	0.661	0.666	0.652	0.528	0.445	0.443	0.372
COR-L23	0.872	1.08	0.826	1.04	0.834	0.609	0.548	0.504	0.467	0.316	0.764	0.66	0.562	0.252	0.0977	0.361	0.38	0.29	0.147	0.131
BEN	0.938	0.694	0.679	0.757	0.787	0.342	0.309	0.296	0.318	0.321	0.925	0.968	0.825	0.707	0.832	1.07	1.09	0.897	0.938	1.13
LK-2	0.922	0.777	1.01	1.03	0.935	0.334	0.217	0.347	0.368	0.379	0.29	0.223	0.235	0.227	0.272	0.713	0.672	0.585	0.604	0.653
NCI-H520	0.9	1.05	0.901	0.959	0.729	0.191	0.193	0.216	0.184	0.151	0.649	0.597	0.793	0.616	0.501	0.318	0.337	0.313	0.248	0.297
NCI-H661	0.575	0.534	0.415	0.541	0.371	0.985	0.835	0.861	0.886	0.702	0.971	1.21	1.08	1.02	0.993	0.674	0.881	0.681	0.542	0.52
ABC-1	1.34	1.03	1.23	1.05	0.98	0.658	0.653	0.557	0.553	0.476	1.09	1.28	0.804	0.294	0.209	0.946	0.761	0.723	0.525	0.306
NCI-H2009	1	0.971	0.937	0.962	0.861	0.318	0.288	0.281	0.233	0.142	1.06	0.991	0.893	0.352	0.222	0.735	0.557	0.64	0.457	0.315
NCI-H1993	0.733	0.846	0.808	0.776	0.746	0.581	0.56	0.566	0.521	0.491	1.08	0.812	0.839	0.721	0.822	0.0056	0.942	1.03	0.817	0.962
HCC-78	0.949	0.682	0.82	0.702	0.959	0.363	0.362	0.379	0.48	0.694	0.356	0.332	0.395	0.352	0.28	0.866	0.994	1.04	0.799	0.701
